target: T1, PI3Kγ (purified recombinant p101/p110γ protein) (Homo sapiens, UniProt P48736); assay: PI3Kγ in vitro kinase assay; type: biochemical; settings: 20 μM ATP, 25 μM PIP2, G protein β1/γ2 subunits
T1 construct: HA; made in house; host or cells: Spodoptera frugiperda Sf9 cells (baculovirus coinfection)
Method: Spodtera frugiperda cells, grown in ESF921 media, were coinfected with baculovirus expressing a glu-tagged p101 and baculovirus expressing an HA-tagged […], at a 3:1 ratio of p101 baculovirus to p110γ baculovirus. Sf9 cells were grown to 1×10^7 total cells/mL in 10 L bioreactors and harvested 48-72 hours post infection. Samples of infected cells were then tested for expression of p101/p110γ PI3 kinase by immunoprecipitation and Western Blot analysis methods (see below).
To purify PI3Kγ, 4 volumes of room temperature hypotonic lysis buffer (1 mM MgCl2, 1 mM DTT, 5 mM EGTA, 1 mM Pefabloc, 0.5 μM aprotinin, 5 μM leupeptin, 2 μM pepstatin, 5 μM E64, pH 8) per gram of cell paste, was poured onto frozen cell pellets with stirring, then lysed in a nitrogen “bomb” at 400 psi (599HC T316, Parr Instrument Co, Moline, Ill.). NaCl was added to 150 mM, and sodium cholate was added to 1% and mixed for another 45 minutes. The lysates were clarified by centrifugation for 25 minutes at 14,000 rpm. The lysates were then loaded over anti-glu-linked Protein-G Sepaharose beads (Covance Research Products, Richmond, Calif.) using 20 mL resin/50 g cell paste. The column was washed with 15 volumes of wash buffer (1 mM DTT, 0.2 mM EGTA, 1 mM Pefabloc, 0.5 μM aprotinin, 5 μM leupeptin, 2 μM pepstatin, 5 μM E64, 150 mM NaCl, 1% sodium cholate, pH 8). PI3Kγ was eluted with 6 column volumes of wash buffer that contain 100 μg/mL of a peptide that competes for binding of the glu tag. The column fractions with the eluted protein (determined by taking OD280 readings) were collected and dialyzed in 0.2 mM EGTA, 1 mM DTT, 1 mM Pefabloc, 5 μM leupeptin, 0.5% sodium cholate, 150 mM NaCl, and 50% glycerol, pH 8. The fractions were stored at −80° C. until further use.
Spodtera frugiperda cells were coinfected with baculovirus expressing a glu-tagged G protein β1 and baculovirus expressing a G protein β2, at a 1:1 ratio of glu-tagged G protein β1 baculovirus to G protein β2 baculovirus. Sf9 cells are grown in 10 L bioreactors and harvested 48-72 hours post infection. Samples of infected cells were tested for G protein β1/β2 expression by Western Blot analysis, as described below. Cell lysates were homogenized and loaded onto a column of glu-tagged beads as in Biological Example 1 and competed off the column with a glu peptide and processed as described in Biological Example 1.
The inhibitory properties of the compounds in Table 1 were assayed in an in vitro PI3K assay. In a 96-well polypropylene plate, each well was spotted with 2 μL of 50 times the desired final concentration of compound in DMSO. Purified recombinant p101/p110γ protein (0.03 μg; ˜2.7 nM) and G protein β1/γ2 subunits (0.09 μg; ˜57.7 nM) for each reaction was combined in the assay buffer (30 mM HEPES, 100 mM NaCl, 1 mM EGTA, and 1 mM DTT). ATP and [γ-^32P-ATP] (0.09 μCi) were added to this mixture so that the final ATP concentration in the reaction was 20 μM. Lipid micelles were formed by sonicating phosphatidylinositol-4,5-diphosphate (PIP2), phosphatidylethanolamine (PE), and Na-cholate in the assay buffer for 10 minutes, adding MgCl2 and incubating on ice for 20 minutes, for final concentrations of 25 μM PIP2, 300 μM PE, 0.02% Na-cholate, and 10 mM MgCl2 in the reaction. The reactions were started by adding equal volumes lipid and enzyme mixture in a total volume of 50 μL, allowed to run for 20 minutes at room temperature, and stopped with 100 μL 75 mM H3PO4. The lipid product was transferred to a glass fiber filter plate and washed with 75 mM H3PO4 several times. The presence of radioactive lipid product (PIP3) was measured by adding Wallac Optiphase mix to each well and counting in a Wallac 1450 Trilux plate reader (PerkinElmer Life Sciences Inc., Boston, Mass. 02118). The IC50 for each compound tested is reported in μM in the Tables above.

T1 sequence (P48736 whole entry, species assumed): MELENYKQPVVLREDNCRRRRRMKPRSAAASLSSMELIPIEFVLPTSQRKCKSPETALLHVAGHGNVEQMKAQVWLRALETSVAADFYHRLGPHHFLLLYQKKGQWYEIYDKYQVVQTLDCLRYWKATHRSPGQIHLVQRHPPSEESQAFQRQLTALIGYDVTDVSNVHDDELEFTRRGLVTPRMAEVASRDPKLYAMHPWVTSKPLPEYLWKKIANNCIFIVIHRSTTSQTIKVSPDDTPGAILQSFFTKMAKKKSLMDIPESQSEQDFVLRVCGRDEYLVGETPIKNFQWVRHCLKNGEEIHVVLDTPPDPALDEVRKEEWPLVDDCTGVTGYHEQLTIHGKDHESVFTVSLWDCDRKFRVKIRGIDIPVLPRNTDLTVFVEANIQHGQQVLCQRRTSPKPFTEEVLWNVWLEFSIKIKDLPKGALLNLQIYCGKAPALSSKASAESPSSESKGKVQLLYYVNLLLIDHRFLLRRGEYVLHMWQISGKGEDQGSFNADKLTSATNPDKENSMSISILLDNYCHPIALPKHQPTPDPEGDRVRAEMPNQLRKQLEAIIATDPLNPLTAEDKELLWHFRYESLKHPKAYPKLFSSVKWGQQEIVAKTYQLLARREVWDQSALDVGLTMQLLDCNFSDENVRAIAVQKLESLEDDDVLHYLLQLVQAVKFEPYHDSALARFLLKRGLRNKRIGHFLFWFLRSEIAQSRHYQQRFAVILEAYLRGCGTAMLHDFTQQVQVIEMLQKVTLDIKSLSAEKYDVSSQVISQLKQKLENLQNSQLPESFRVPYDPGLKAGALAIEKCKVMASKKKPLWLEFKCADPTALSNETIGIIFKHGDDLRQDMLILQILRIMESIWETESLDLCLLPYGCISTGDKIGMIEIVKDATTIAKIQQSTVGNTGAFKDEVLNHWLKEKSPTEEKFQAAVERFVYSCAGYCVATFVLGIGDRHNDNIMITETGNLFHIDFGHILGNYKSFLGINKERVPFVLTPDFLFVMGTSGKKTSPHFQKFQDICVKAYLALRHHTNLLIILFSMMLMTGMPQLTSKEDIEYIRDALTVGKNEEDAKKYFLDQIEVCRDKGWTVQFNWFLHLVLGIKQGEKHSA
T1 sequence (Q8WYR1 whole entry partner, species assumed): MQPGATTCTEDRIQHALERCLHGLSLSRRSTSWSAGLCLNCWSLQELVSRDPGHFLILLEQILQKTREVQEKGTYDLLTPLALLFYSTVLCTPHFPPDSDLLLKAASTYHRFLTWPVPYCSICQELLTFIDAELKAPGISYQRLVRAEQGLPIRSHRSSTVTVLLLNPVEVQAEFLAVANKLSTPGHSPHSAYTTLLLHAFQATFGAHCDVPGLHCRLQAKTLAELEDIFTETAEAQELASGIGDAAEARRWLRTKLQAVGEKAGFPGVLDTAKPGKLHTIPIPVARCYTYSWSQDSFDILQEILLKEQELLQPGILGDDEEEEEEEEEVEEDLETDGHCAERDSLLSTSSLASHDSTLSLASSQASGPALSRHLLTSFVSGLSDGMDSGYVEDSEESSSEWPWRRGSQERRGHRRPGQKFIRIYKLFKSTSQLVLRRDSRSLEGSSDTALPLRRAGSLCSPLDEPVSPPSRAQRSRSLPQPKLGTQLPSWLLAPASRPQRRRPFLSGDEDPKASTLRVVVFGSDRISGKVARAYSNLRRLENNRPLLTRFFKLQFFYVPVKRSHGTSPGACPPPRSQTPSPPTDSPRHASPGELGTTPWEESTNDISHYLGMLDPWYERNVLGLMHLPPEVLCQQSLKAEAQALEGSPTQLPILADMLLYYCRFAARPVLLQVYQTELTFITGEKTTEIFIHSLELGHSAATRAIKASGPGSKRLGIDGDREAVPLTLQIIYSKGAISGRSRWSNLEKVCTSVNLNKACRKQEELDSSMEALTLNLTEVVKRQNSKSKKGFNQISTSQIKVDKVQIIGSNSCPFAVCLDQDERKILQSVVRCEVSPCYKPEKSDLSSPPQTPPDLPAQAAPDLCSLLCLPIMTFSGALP

Row | Molecule | IC50 [nM]
1 | COc1cc2c(Oc3ccc(OC4CCCC4)cc3)c(C(=O)Nc3nn[nH]n3)sc2cc1F [Example 2, 3-(4-Cyclopentyloxy-phenoxy)-6-fluoro-5-methoxy-benzo[b]thiophene-2-carboxylic acid (2H-tetrazol-5-yl)-amide] | 15
2 | 6-Fluoro-5-methoxy-3-phenoxy-benzo[b]thiophene-2-carboxylic acid iminomethyl-amide [Example 3] | 24.5
3 | COc1cc2c(Oc3ccc(Cl)cc3)c(C(=O)Nc3nn[nH]n3)sc2cc1F [Example 1, 3-(4-Chloro-phenoxy)-6-fluoro-5-methoxy-benzo[b]thiophene-2-carboxylic acid (2H-tetrazol-5-yl)-amide] | 76.5
4 | 3-[2-(Acetyl-methyl-amino)-1-phenyl-propylsulfanyl]-4-fluoro-5-methoxy-benzo[b]thiophene-2-carboxylic acid (1H-tetrazol-5-yl)-amide [Example 30] | 20000
5 | 3-(4-Chloro-phenylsulfanyl)-6-fluoro-5-methoxy-benzo[b]thiophene-2-carboxylic acid (1H-tetrazol-5-yl)-amide [Example 20] | 45.5
6 | COc1ccc2sc(C(=O)Nc3nnn[nH]3)c(Sc3ccc(O)cc3)c2c1F [Example 22, 4-Fluoro-3-(4-hydroxy-phenylsulfanyl)-5-methoxy-benzo[b]thiophene-2-carboxylic acid (1H-tetrazol-5-yl)-amide] | 2760
7 | COc1cc2c(OC3CCCCCC3)c(C(=O)Nc3nn[nH]n3)sc2cc1F [Example 8, 3-Cycloheptyloxy-6-fluoro-5-methoxy-benzo[b]thiophene-2-carboxylic acid (2H-tetrazol-5-yl)-amide] | 3.4
8 | COc1ccc2sc(C(=O)Nc3nnn[nH]3)c(Sc3ccc(CCC(=O)O)cc3)c2c1F [Example 36, 3-{4-[4-Fluoro-5-methoxy-2-(1H-tetrazol-5-ylcarbamoyl)-benzo[b]thiophen-3-ylsulfanyl]-phenyl}-propionic acid] | 7180
9 | COc1cc2c(OC3CC(C)CC(C)(C)C3)c(C(=O)Nc3nn[nH]n3)sc2cc1F (stereo not drawn) [Example 12, 6-Fluoro-5-methoxy-3-(3,3,5-trimethyl-cyclohexyloxy)-benzo[b]thiophene-2-carboxylic acid (2H-tetrazol-5-yl)-amide] | 5.3
10 | COc1cc2c(OC3CC(C)CC(C)C3)c(C(=O)Nc3nn[nH]n3)sc2cc1F (stereo not drawn) [Example 15, 3-(3,5-Dimethyl-cyclohexyloxy)-6-fluoro-5-methoxy-benzo[b]thiophene-2-carboxylic acid (2H-tetrazol-5-yl)-amide] | 2.2
11 | COC(=O)c1cccc(Sc2c(C(=O)Nc3nnn[nH]3)sc3ccc(OC)c(F)c23)c1 [Example 24, 3-[4-Fluoro-5-methoxy-2-(1H-tetrazol-5-ylcarbamoyl)-benzo[b]thiophen-3-ylsulfanyl]-benzoic acid methyl ester] | 4200
12 | COc1ccc2sc(C(=O)Nc3nnn[nH]3)c(Sc3cccc(Cl)c3)c2c1F [Example 31, 3-(3-Chloro-phenylsulfanyl)-4-fluoro-5-methoxy-benzo[b]thiophene-2-carboxylic acid (1H-tetrazol-5-yl)-amide] | 5870
13 | COc1cc2c(OC3CCC3)c(C(=O)Nc3nn[nH]n3)sc2cc1F [Example 16, 3-Cyclobutoxy-6-fluoro-5-methoxy-benzo[b]thiophene-2-carboxylic acid (2H-tetrazol-5-yl)-amide] | 32.5

same assay, conditions: 20 μM ATP, 25 μM PIP2, G protein β1/γ2 subunits, table b298

Row | Molecule | IC50 [nM]
14 | COc1cc2c(Oc3ccc(C4CCCCC4)cc3)c(C(=O)Nc3nn[nH]n3)sc2cc1Cl [Example 44, 6-Chloro-3-(4-Cyclohexyl-phenoxy)-5-methoxy-benzo[b]thiophene-2-carboxylic acid (2H-tetrazol-5-yl)-amide] | 110
15 | COc1cc2c(Oc3ccc(C4CCCCC4)cc3)c(C(=O)Nc3nn[nH]n3)sc2cc1Br [Example 43, 6-Bromo-3-(4-Cyclohexyl-phenoxy)-5-methoxy-benzo[b]thiophene-2-carboxylic acid (2H-tetrazol-5-yl)-amide] | 380

Reference: US20050096350A1, “Halo substituted benzo[b]thiophenes as therapeutic agents” (priority 2003, published 2005)
